Structures are written as SMILES.

This experiment deals with T1, human mineralocorticoid receptor (hMR) (Homo sapiens, UniProt P08235).
T1 construct: made in house; host or cells: Sf9 insect cells (baculovirus)
T1 sequence (P08235 1-984): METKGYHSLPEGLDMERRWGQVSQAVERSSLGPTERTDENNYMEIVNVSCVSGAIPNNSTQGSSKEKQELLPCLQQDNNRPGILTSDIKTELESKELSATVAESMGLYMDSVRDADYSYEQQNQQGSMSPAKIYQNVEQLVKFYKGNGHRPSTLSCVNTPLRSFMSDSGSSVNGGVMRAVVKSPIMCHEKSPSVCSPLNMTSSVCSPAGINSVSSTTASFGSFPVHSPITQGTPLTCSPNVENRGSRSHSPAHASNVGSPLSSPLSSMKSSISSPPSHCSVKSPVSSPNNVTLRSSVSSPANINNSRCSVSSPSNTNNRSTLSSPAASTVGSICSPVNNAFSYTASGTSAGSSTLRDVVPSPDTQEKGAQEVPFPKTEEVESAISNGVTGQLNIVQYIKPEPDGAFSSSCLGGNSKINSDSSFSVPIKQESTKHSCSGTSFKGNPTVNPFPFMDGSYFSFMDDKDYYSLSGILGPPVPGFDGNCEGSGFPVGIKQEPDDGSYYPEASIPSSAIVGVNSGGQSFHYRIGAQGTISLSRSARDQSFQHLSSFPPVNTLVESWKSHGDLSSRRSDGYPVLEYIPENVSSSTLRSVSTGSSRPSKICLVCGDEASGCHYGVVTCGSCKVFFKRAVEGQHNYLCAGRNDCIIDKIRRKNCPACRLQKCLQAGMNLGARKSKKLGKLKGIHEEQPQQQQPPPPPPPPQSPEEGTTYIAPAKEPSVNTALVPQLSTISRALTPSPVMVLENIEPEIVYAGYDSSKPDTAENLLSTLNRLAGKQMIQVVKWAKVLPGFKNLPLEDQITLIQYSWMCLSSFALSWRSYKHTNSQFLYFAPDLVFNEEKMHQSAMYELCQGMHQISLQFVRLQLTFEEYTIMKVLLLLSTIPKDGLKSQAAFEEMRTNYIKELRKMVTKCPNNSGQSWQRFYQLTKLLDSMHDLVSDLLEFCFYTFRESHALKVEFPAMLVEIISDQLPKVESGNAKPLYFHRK
Kind of experiment: Radioligand binding, [3H]aldosterone, hMR Sf9 lysate, vacuum filtration. As for the experimental part: Full-length human mineralocorticoid receptor (hMR) to be used in radioligand binding was isolated from a human kidney cDNA library (Clontech, Palo Alto, CA). […] The hMR, hPR, and hAR cDNAs were subcloned in the eukaryotic expression vector pcDNA3. Methods for the expression of functionally active hMR, hAR and hPR utilizing the baculovirus expression system were described previously, [31].
Affinity of ligands to the soluble receptor was determined using vacuum filtration methods, preparing soluble receptors in 96-well Falcon polystyrene plates (BD Biosciences, Bedford, MA) in a total volume of 250 μl. […] Binding studies for ligands for hPR and hAR were determined using [1,2,6,7-3H(N)] […] Specific binding of 3H-progesterone for hPR and 3H-mibolerone for hAR was determined in the presence and absence of 1 μM mifepristone. Inhibition constants (Ki), were determined either from the Cheng-Prusoff equation[32], or directly using non-linear regression curve fitting to a three-parameter one-site competitive equation. […] Protein was measured using colorimetric detection and quantification of bicinchoninic acid (BCA Protein Assay, Pierce, Rockford, IL). […] Concentration response curves were analyzed statistically using a four-parameter logistic equation (Hill equation for sigmoid curves). […]

Take `O=c1[nH]c2ccc(/C=C3\c4ccc(F)cc4COc4cc(F)ccc43)cc2[nH]1` [Ly]: where the note is “hMR expressed in Sf9, [3H]aldosterone 0.5 nM, read-out: Mean Ki ± SEM hMR”, the inhibitory constant (Ki) worked out at 1.6 ± 0.3 nM. Moreover, the “Eple/Ly Ki ratio” value (hMR, 124/1.6) came out at 77.5.

The record behind these values is PMC5554220, “A Novel Aldosterone Antagonist Limits Renal Injury in 5/6 Nephrectomy” (Scientific Reports, 2017).
